Source: patent US6376497B1, “Antifungal azole derivatives having a fluorinated vinyl group and process for preparing same” (Korea Research Institute of Chemical Technology, priority 1999, dated 2002)
≈ marks a conversion by molar mass, not a printed value.

Assays:
Test in all cases: In vitro antifungal activity, microbroth dilution MIC
Format in all cases: cell-based
[1] = test system: Trichophyton mentagrophytes B. 32663; conditions: T. mentagrophytes B. 32663, RPMI-1640, 35° C., 4 to 48 hours
How it was run: (§1)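 Broth microdilution adapted from NCCLS M27, in RPMI-1640 with 0.165 M MOPS, pH 7.0. Yeast or mould inoculum at 2×10^3 CFU/ml was mixed 1:1 with DMSO-derived compound solutions (200 to 0.10 μg/ml before mixing) and incubated at 35 °C for 4 to 48 h. MIC was the concentration showing no growth.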

Candida krusei K. 11655 = conditions: C. krusei K. 11655, RPMI-1640, 35° C., 4 to 48 hours
How it was run: as §1

[2] = test system: Candida albicans A. 10231; conditions: C. albicans A. 10231, RPMI-1640, 35° C., 4 to 48 hours
How it was run: as §1

[3] = test system: Torulopsis glabrata B. 16205; conditions: T. glabrata B. 16205, RPMI-1640, 35° C., 4 to 48 hours
How it was run: as §1

[4] = test system: Cryptococcus neoformans A. 34144; conditions: Cry. neoformans A. 34144, RPMI-1640, 35° C., 4 to 48 hours
How it was run: as §1

[5] = test system: Cryptococcus neoformans IFM. 40092; conditions: Cry. neoformans IFM. 40092, RPMI-1640, 35° C., 4 to 48 hours
How it was run: as §1

[6] = test system: Trichophyton mentagrophytes A. 9129; conditions: T. mentagrophytes A. 9129, RPMI-1640, 35° C., 4 to 48 hours
How it was run: as §1

[7] = test system: Candida pseudotropicalis K. 11658; conditions: C. pseudotropicalis K. 11658, RPMI-1640, 35° C., 4 to 48 hours
How it was run: as §1

[8] = test system: Candida albicans IFO. 1385; conditions: C. albicans IFO. 1385, RPMI-1640, 35° C., 4 to 48 hours
How it was run: as §1

Candida albicans C1-2 = conditions: C. albicans C1-2, RPMI-1640, 35° C., 4 to 48 hours
How it was run: as §1

[9] = test system: Aspergillus furnigatus B. 19119; conditions: A furnigatus B. 19119, RPMI-1640, 35° C., 4 to 48 hours
How it was run: as §1

[10] = test system: Aspergillus niger A. 16404; conditions: A. niger A. 16404, RPMI-1640, 35° C., 4 to 48 hours
How it was run: as §1

[11] = test system: Candida tropicalis A. 13803; conditions: C. tropicalis A. 13803, RPMI-1640, 35° C., 4 to 48 hours
How it was run: as §1

[12] = test system: Candida parapsitosis A. 7330; conditions: C. parapsitosis A. 7330, RPMI-1640, 35° C., 4 to 48 hours
How it was run: as §1

[13] = test system: Cryptococcus neoformans B. 42419; conditions: Cry. neoformans B. 42419, RPMI-1640, 35° C., 4 to 48 hours
How it was run: as §1

Compound | Minimal inhibitory concentration (MIC) [1] [µg/mL] | Minimal inhibitory concentration (MIC) (Candida krusei K. 11655) [µg/mL] | Minimal inhibitory concentration (MIC) [2] [µg/mL] | Minimal inhibitory concentration (MIC) [3] [µg/mL] | Minimal inhibitory concentration (MIC) [4] [µg/mL] | Minimal inhibitory concentration (MIC) [5] [µg/mL] | Minimal inhibitory concentration (MIC) [6] [µg/mL] | Minimal inhibitory concentration (MIC) [7] [µg/mL] | Minimal inhibitory concentration (MIC) [8] [µg/mL] | Minimal inhibitory concentration (MIC) (Candida albicans C1-2) [µg/mL] | Minimal inhibitory concentration (MIC) [9] [µg/mL] | Minimal inhibitory concentration (MIC) [10] [µg/mL] | Minimal inhibitory concentration (MIC) [11] [µg/mL] | Minimal inhibitory concentration (MIC) [12] [µg/mL] | Minimal inhibitory concentration (MIC) [13] [µg/mL]
Cc1cccc(C(=C(F)OCC2COC(Cn3ccnc3)(c3ccc(Cl)cc3Cl)O2)C(F)(F)F)c1 (stereo not drawn) [Ex. 20] | 6.25 (≈ 11.8 µM) | 100 (≈ 188 µM) | 6.25 (≈ 11.8 µM) | 12.5 (≈ 23.5 µM) | 1.56 (≈ 2.94 µM) | 0.39 (≈ 0.734 µM) | 12.5 (≈ 23.5 µM) | 100 (≈ 188 µM) | 0.78 (≈ 1.47 µM) | 6.25 (≈ 11.8 µM) | 50.0 (≈ 94.1 µM) | 100 (≈ 188 µM) | 25.0 (≈ 47.1 µM) | >100 | 1.56 (≈ 2.94 µM)
Cc1ccc(C(=C(F)OCC2COC(Cn3ccnc3)(c3ccc(Cl)cc3Cl)O2)C(F)(F)F)cc1 (stereo not drawn) [Ex. 21] | 6.25 (≈ 11.8 µM) | >100 | 6.25 (≈ 11.8 µM) | 12.5 (≈ 23.5 µM) | 0.78 (≈ 1.47 µM) | 0.39 (≈ 0.734 µM) | 12.5 (≈ 23.5 µM) | 100 (≈ 188 µM) | 0.78 (≈ 1.47 µM) | 6.25 (≈ 11.8 µM) | 50.0 (≈ 94.1 µM) | 100 (≈ 188 µM) | 25.0 (≈ 47.1 µM) | >100 | 1.56 (≈ 2.94 µM)
CCc1ccc(C(=C(F)OCC2COC(Cn3ccnc3)(c3ccc(Cl)cc3Cl)O2)C(F)(F)F)cc1 (stereo not drawn) [Ex. 22] | 12.5 (≈ 22.9 µM) | 100 (≈ 183 µM) | 6.25 (≈ 11.5 µM) | 25.0 (≈ 45.8 µM) | 1.56 (≈ 2.86 µM) | 0.78 (≈ 1.43 µM) | 25.0 (≈ 45.8 µM) | 100 (≈ 183 µM) | 0.78 (≈ 1.43 µM) | 12.5 (≈ 22.9 µM) | 50.0 (≈ 91.7 µM) | 100 (≈ 183 µM) | 25.0 (≈ 45.8 µM) | >100 | 1.56 (≈ 2.86 µM)
Cc1ccc(C(=C(F)OCC2COC(Cn3ccnc3)(c3ccc(Cl)cc3Cl)O2)C(F)(F)F)cc1C (stereo not drawn) [Ex. 23] | 6.25 (≈ 11.5 µM) | 100 (≈ 183 µM) | 6.25 (≈ 11.5 µM) | 12.5 (≈ 22.9 µM) | 1.56 (≈ 2.86 µM) | 0.39 (≈ 0.715 µM) | 12.5 (≈ 22.9 µM) | 100 (≈ 183 µM) | 0.78 (≈ 1.43 µM) | 6.25 (≈ 11.5 µM) | 50.0 (≈ 91.7 µM) | 100 (≈ 183 µM) | 25.0 (≈ 45.8 µM) | >100 | 1.56 (≈ 2.86 µM)
Cc1cc(C)cc(C(=C(F)OCC2COC(Cn3ccnc3)(c3ccc(Cl)cc3Cl)O2)C(F)(F)F)c1 (stereo not drawn) [Ex. 24] | 6.25 (≈ 11.5 µM) | >100 | 6.25 (≈ 11.5 µM) | 12.5 (≈ 22.9 µM) | 0.78 (≈ 1.43 µM) | 0.39 (≈ 0.715 µM) | 12.5 (≈ 22.9 µM) | 100 (≈ 183 µM) | 0.78 (≈ 1.43 µM) | 6.25 (≈ 11.5 µM) | 50.0 (≈ 91.7 µM) | 100 (≈ 183 µM) | 25.0 (≈ 45.8 µM) | >100 | 1.56 (≈ 2.86 µM)

More lines, now with the values ahead:

Minimal inhibitory concentration (MIC) [1] [µg/mL] | Minimal inhibitory concentration (MIC) (Candida krusei K. 11655) [µg/mL] | Minimal inhibitory concentration (MIC) [2] [µg/mL] | Minimal inhibitory concentration (MIC) [3] [µg/mL] | Minimal inhibitory concentration (MIC) [4] [µg/mL] | Minimal inhibitory concentration (MIC) [5] [µg/mL] | Minimal inhibitory concentration (MIC) [6] [µg/mL] | Minimal inhibitory concentration (MIC) [7] [µg/mL] | Minimal inhibitory concentration (MIC) [8] [µg/mL] | Minimal inhibitory concentration (MIC) (Candida albicans C1-2) [µg/mL] | Minimal inhibitory concentration (MIC) [9] [µg/mL] | Minimal inhibitory concentration (MIC) [10] [µg/mL] | Minimal inhibitory concentration (MIC) [11] [µg/mL] | Minimal inhibitory concentration (MIC) [12] [µg/mL] | Minimal inhibitory concentration (MIC) [13] [µg/mL] | Compound
12.5 (≈ 21.4 µM) | 100 (≈ 171 µM) | 6.25 (≈ 10.7 µM) | 25.0 (≈ 42.7 µM) | 1.56 (≈ 2.67 µM) | 0.78 (≈ 1.33 µM) | 25.0 (≈ 42.7 µM) | 100 (≈ 171 µM) | 1.56 (≈ 2.67 µM) | 12.5 (≈ 21.4 µM) | 100 (≈ 171 µM) | 100 (≈ 171 µM) | 50.0 (≈ 85.4 µM) | >100 | 1.56 (≈ 2.67 µM) | FC(OCC1COC(Cn2ccnc2)(c2ccc(Cl)cc2Cl)O1)=C(c1ccc(C(F)(F)F)cc1)C(F)(F)F (stereo not drawn) [Ex. 25]
6.25 (≈ 11.4 µM) | >100 | 25.0 (≈ 45.7 µM) | 25.0 (≈ 45.7 µM) | 1.56 (≈ 2.85 µM) | 0.78 (≈ 1.43 µM) | 25.0 (≈ 45.7 µM) | >100 | 1.56 (≈ 2.85 µM) | 25.0 (≈ 45.7 µM) | 100 (≈ 183 µM) | 100 (≈ 183 µM) | >100 | >100 | 1.56 (≈ 2.85 µM) | COc1ccc(C(=C(F)OCC2COC(Cn3ccnc3)(c3ccc(Cl)cc3Cl)O2)C(F)(F)F)cc1 (stereo not drawn) [Ex. 27]
6.25 (≈ 11.1 µM) | >100 | 25.0 (≈ 44.5 µM) | 25.0 (≈ 44.5 µM) | 1.56 (≈ 2.78 µM) | 0.78 (≈ 1.39 µM) | 25.0 (≈ 44.5 µM) | 100 (≈ 178 µM) | 1.56 (≈ 2.78 µM) | 25.0 (≈ 44.5 µM) | 100 (≈ 178 µM) | 100 (≈ 178 µM) | 100 (≈ 178 µM) | 100 (≈ 178 µM) | 1.56 (≈ 2.78 µM) | FC(OCC1COC(Cn2ccnc2)(c2ccc(Cl)cc2Cl)O1)=C(c1ccc2c(c1)OCO2)C(F)(F)F (stereo not drawn) [Ex. 28]
